Data published in US20240166664A1, “TRIHETEROCYCLIC COMPOUND, PREPARATION METHOD THEREFOR, AND APPLICATION THEREOF” (SHANGHAI APEIRON THERAPEUTICS COMPANY LIMITED, priority 2021, published 2024).
Like-named read-outs stand apart in the source and are kept apart here.

Experiments:
[1] = system: NCI-H1373 cells; test: Cell proliferation inhibition assay (CTG method); format: cell-based, human; settings: read-out: IC50 (nM) for NCI-H1373 cell viability
[2] = molecular target: T1, PARP7 (Homo sapiens, UniProt Q7Z3E1); test: Test of inhibitory activity against PARP7 enzyme (PARP7 FLAG-tag, Probe A, time-resolved fluorescence); format: biochemical; settings: PARP7 12 nM, Probe A 2 nM, 1 hr room temperature
T1 construct: purchased BPS 80527
T1 sequence (Q7Z3E1 1-657): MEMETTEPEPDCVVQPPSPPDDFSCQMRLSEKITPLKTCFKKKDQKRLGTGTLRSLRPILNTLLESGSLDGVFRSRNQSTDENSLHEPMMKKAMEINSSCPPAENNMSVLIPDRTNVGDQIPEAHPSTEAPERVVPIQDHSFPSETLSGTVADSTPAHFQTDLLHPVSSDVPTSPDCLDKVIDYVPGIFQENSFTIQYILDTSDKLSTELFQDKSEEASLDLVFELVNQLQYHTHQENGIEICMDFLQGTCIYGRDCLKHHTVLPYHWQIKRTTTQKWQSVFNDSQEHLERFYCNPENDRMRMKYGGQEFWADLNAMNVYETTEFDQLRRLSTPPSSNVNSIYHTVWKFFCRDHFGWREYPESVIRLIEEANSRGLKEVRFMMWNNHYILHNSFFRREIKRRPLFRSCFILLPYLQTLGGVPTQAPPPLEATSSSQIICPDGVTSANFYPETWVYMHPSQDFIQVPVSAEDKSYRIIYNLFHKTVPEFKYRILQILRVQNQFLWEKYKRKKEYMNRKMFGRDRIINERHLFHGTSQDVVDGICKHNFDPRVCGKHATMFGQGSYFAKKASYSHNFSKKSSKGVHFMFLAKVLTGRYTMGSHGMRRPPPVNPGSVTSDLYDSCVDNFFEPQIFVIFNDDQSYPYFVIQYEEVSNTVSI

[3] = Homo sapiens, NCI-H1373, 144 h, NCI-H1373 cells, 6 days incubation, CTG method
[4] = NCI-H1373 cells, 6 days incubation, CTG method

SMILES | IC50 [1, 3] [nM] | IC50 [2] [nM] | IC50 [1, 4] [nM] | IC50 ([1]; Homo sapiens, NCI-H1373, 144 h) [nM]
C[C@@H](COCCC(=O)N1CCN2c3ncc(C(F)(F)F)cc3OC[C@@H]2C1)Nc1cn[nH]c(=O)c1C(F)(F)F [Compound 2, 5-(((S)-1-(3-oxo-3-((S)-3-(trifluoromethyl)-6a, 7,9,10-tetrahydropyrazino[1,2-d]pyrido[3,2-b][1,4]oxazin-8(6H)-yl)propoxy)prop-2-yl)amino)-4-(trifluoromethyl)pyridazin-3(2H)-one] | < 100 | < 10 | – | –
C[C@@H]1CN2c3ncc(C(F)(F)F)cc3OC[C@H]2CN1C(=O)CCOC[C@H](C)Nc1cn[nH]c(=O)c1C(F)(F)F [Compound 24, 5-(((S)-1-(3-((6aR,9R)-9-methyl-3-(trifluoromethyl)-6a, 7,9,10-tetrahydropyrazino[1,2-d]pyrido[3,2-b][1,4]oxazin-8(6H)-yl)-3-oxypropoxy)prop-2-yl)amino)-4-(trifluoromethyl)pyridazin-3(2H)-one] | 100 to 500 | – | – | –
CC(COCCC(=O)N1CCN2c3ncc(C(F)(F)F)cc3CN(C)C(=O)C2C1)Nc1cn[nH]c(=O)c1C(F)(F)F [Compound 57, (R)-6-methyl-9-(3-((S)-2-((6-oxo-5-(trifluoromethyl)-1,6-dihydropyridazin-4-yl)amino)propoxy)propionyl)-3-(trifluoromethyl)-5,6,8,9, 10, 11-hexahydropyrazino[1,2-a]pyrido[3,2-f][1, 4]diazepan-7(7aH)-one] | 500 to 5000 | – | – | –
C[C@@H](COCCC(=O)N1CCN2C(=O)c3ncc(C(F)(F)F)cc3OC[C@H]2C1)Nc1cn[nH]c(=O)c1C(F)(F)F [Compound 16, (R)-8-(3-((S)-2-((6-oxo-5-(trifluoromethyl)-1,6-dihydropyridazin-4-yl)amino)propoxy)propionyl)-3-(trifluoromethyl)-6,6a, 7,8,9,10-hexahydro-12H-pyrazino[2,1-c]pyrido[2,3-f][1,4]oxazepin-12-one] | > 5000 | 10 to 100 | – | –
C[C@@H](COCCC(=O)N1CCN2Cc3ncc(C(F)(F)F)cc3OC[C@@H]2C1)Nc1cn[nH]c(=O)c1C(F)(F)F [Compound 19, 5-(((S)-1-(3-oxo-3-((S)-3-(trifluoromethyl)-6a, 7,9,10-tetrahydro-12H-pyrazino[2,1-c]pyrido[2,3-f][1,4]oxazepin-8(6H)-yl)propoxy)prop-2-yl)amino)-4-(trifluoromethyl)pyridazin-3(2H)-one] | > 5000 | 100 to 500 | – | –
CC1SC[C@H]2CN(C(=O)CCOC[C@H](C)Nc3cn[nH]c(=O)c3C(F)(F)F)CCN2c2ncc(C(F)(F)F)cc21 (stereo partly drawn) [Compound 27] | 500 to 5000 | < 10 | – | –
C[C@@H](COCCC(=O)N1CCN2c3ncc(C(F)(F)F)cc3CC[C@@H]2C1)Nc1cn[nH]c(=O)c1C(F)(F)F (single isomer, unassigned) [Compound 46] | 100 to 500 | < 10 | – | –
[2H]C([2H])([2H])N1C(=O)[C@@H]2CN(C(=O)CCOC[C@H](C)Nc3cn[nH]c(=O)c3C(F)(F)F)CCN2c2ncc(C(F)(F)F)cc21 [Compound 39, (s)-5-(methyl-D3)-8-(3-((S)-2-((6-oxo-5-(trifluoromethyl)-1,6-dihydropyridazin-4-yl)amino)propoxy)propionyl)-3-(trifluoromethyl)-7,8,9,10-tetrahydro-5H-pyrazino[1,2-a]pyrido[3,2-e]pyrazino-6(6aH)-one] | – | – | – | < 100
C[C@@H](COCCC(=O)N1CCN2c3ncc(C(F)(F)F)cc3N(C)C(=O)[C@@H]2C1)Nc1cn[nH]c(=O)c1C(F)(F)F [Compound 33, (S)-5-methyl-8-(3-((S)-2-((6-oxo-5-(trifluoromethyl)-1,6-dihydropyridazin-4-yl)amino)propoxy)propionyl)-3-(trifluoromethyl)-7,8,9,10-tetrahydro-5H-pyrazino[1,2-a]pyrido[3,2-e]pyrazin-6(6aH)-one] | – | – | – | < 100
C[C@@H](COCCC(=O)N1CCN2c3ncc(C(F)(F)F)cc3N(C)C(=O)[C@H]2C1)Nc1cn[nH]c(=O)c1C(F)(F)F [Compound 54, (R)-5-methyl-8-(3-((S)-2-((6-oxo-5-(trifluoromethyl)-1,6-dihydropyridazin-4-yl)amino)propoxy)propionyl)-3-(trifluoromethyl)-7,8,9, 10-tetrahydro-5H-pyrazino[1,2-a]pyrido[3,2-e]pyrazin-6(6aH)-one] | – | – | – | < 100
C[C@@H](COCCC(=O)N1CCN2c3ncc(C(F)(F)F)cc3NC(=O)[C@H]2C1)Nc1cn[nH]c(=O)c1C(F)(F)F [Compound 7, (R)-8-(3-((S)-2-((6-oxo-5-(trifluoromethyl)-1,6-dihydropyridazin-4-yl)amino)propoxy)propionyl)-3-(trifluoromethyl)-7,8,9,10-tetrahydro-5H-pyrazino[1,2-a]pyrido[3,2-e]pyrazin-6(6aH)-one] | – | – | – | 500 to 5000
C[C@@H](COCCC(=O)N1CCN2c3ncc(C(F)(F)F)cc3NC(=O)[C@@H]2C1)Nc1cn[nH]c(=O)c1C(F)(F)F [Compound 8, (S)-8-(3-((S)-2-((6-oxo-5-(trifluoromethyl)-1,6-dihydropyridazin-4-yl)amino)propoxy)propionyl)-3-(trifluoromethyl)-7,8,9,10-tetrahydro-5H-pyrazino[1,2-a]pyrido[3,2-e]pyrazin-6(6aH)-one] | – | – | – | 100 to 500

More lines, main results first:

IC50 [1, 3] [nM] | IC50 [2] [nM] | IC50 [1, 4] [nM] | SMILES | IC50 ([1]; Homo sapiens, NCI-H1373, 144 h) [nM]
< 100 | < 10 | – | C[C@@H](COC[C@H](F)C(=O)N1CCN2c3ncc(C(F)(F)F)cc3C=C[C@@H]2C1)Nc1cn[nH]c(=O)c1C(F)(F)F [Compound 74] | –
< 100 | < 10 | – | Cc1c(C(F)(F)F)cnc2c1OC[C@H]1CN(C(=O)CCOC[C@H](C)Nc3cn[nH]c(=O)c3C(F)(F)F)CCN21 [Compound 52, 5-(((S)-1-(3-((R)-4-methyl-3-(trifluoromethyl)-6a, 7,9, 10-tetrahydropyrazino[1,2-d]pyrido[3,2-b][1, 4]oxazinane-8(6H)-yl)-3-oxopropoxy)prop-2-yl)amino)-4-(trifluoromethyl)pyridazin-3(2H)-one] | –
100 to 500 | – | – | C[C@@H](COCCC(=O)N1CCN2c3ncc(C(F)(F)F)c(C(F)F)c3OCC[C@H]2C1)Nc1cn[nH]c(=O)c1C(F)(F)F [Compound 62, 5-(((S)-1-(3-((S)-4-(difluoromethyl)-3-(trifluoromethyl)-6,7,7a, 8, 10, 11-hexahydro-9H-pyrazino[1,2-d]pyrido[3,2-b][1, 4]oxazepane-9-yl)-3-oxypropoxy)prop-2-yl)amino)-4-(trifluoromethyl)pyridazin-3(2H)-one] | –
100 to 500 | < 10 | – | C[C@@H]1CN2c3ncc(C(F)(F)F)cc3COC[C@H]2CN1C(=O)CCOC[C@H](C)Nc1cn[nH]c(=O)c1C(F)(F)F [Compound 25, 5-(((S)-1-(3-((6aR,9R)-9-methyl-3-(trifluoromethyl)-6a, 7,9,10-tetrahydropyrazino[1,2-d]pyrido[3,2-b][1,4]oxazin-8(6H)-yl)-3-oxypropoxy)prop-2-yl)amino)-4-(trifluoromethyl)pyridazin-3(2H)-one] | –
– | < 10 | 100 to 500 | CC(COCC(O)C(=O)N1CCN2c3ncc(C(F)(F)F)cc3COCC2C1)Nc1cn[nH]c(=O)c1C(F)(F)F (single isomer, unassigned) [Compound 56] | –
– | < 10 | – | C[C@@H](COCCC(=O)N1CCN2c3ncc(C(F)(F)F)cc3NC(C)(C)[C@H]2C1)Nc1cn[nH]c(=O)c1C(F)(F)F [Compound 76] | –
100 to 500 | < 10 | – | C[C@@H](COCCC(=O)N1CCN2c3ncc(C(F)(F)F)cc3N(C)CCC2C1)Nc1cn[nH]c(=O)c1C(F)(F)F (stereo partly drawn) [Compound 43, 5-((((2S)-1-(3-(5-methyl-3-(trifluoromethyl))-6,7,7a, 8,10,11-hexahydropyrazino[1,2-d]pyrido[3,2-b] [1,4]diazepine-9(5H)-yl)-3-oxopropoxy)prop-2-yl)amino)-4-(trifluoromethyl)pyridazin-3(2H)-one] | –
< 100 | – | – | C[C@@H](COCCC(=O)N1CCN2c3ncc(C(F)(F)F)cc3COC[C@H]2C1)Oc1cn[nH]c(=O)c1C(F)(F)F [Compound 69, 5-(((S)-1-(3-oxo-3-((R)-3-(trifluoromethyl)-7a, 8, 10, 11-tetrahydro-5H-pyrazino[2,1-c]pyrido[2,3-e][1, 4]oxazepane-9(7H)-yl)propoxy)prop-2-yl)oxy)-4-(trifluoromethyl)pyridazin-3(2H)-one] | –
> 5000 | – | – | C[C@@H](COCCC(=O)N1CCN2c3ccc(C(F)(F)F)cc3N(C)C(=O)[C@@H]2C1)Nc1cn[nH]c(=O)c1C(F)(F)F [Compound 49] | –
< 100 | – | – | CC(COCC(O)C(=O)N1CCN2c3ncc(C(F)(F)F)cc3CCC2C1)Nc1cn[nH]c(=O)c1C(F)(F)F (stereo not drawn) [Compound 67] | –
– | – | < 100 | CC(COCC(O)C(=O)N1CCN2c3ncc(C(F)(F)F)cc3CCC2C1)Nc1cn[nH]c(=O)c1C(F)(F)F (stereo not drawn) [Compound 68] | –
